Experimental data: US6358967B1, “Ergoline amine derivatives with blood pressure lowering effect” (priority 1998, dated 2002)
Structures can show the parent of a compound that is named as a salt.

Experiments:
normotensive Wistar rats = assay: Invasive blood pressure measurement in anesthetized rats, i.v. administration; type: in vivo, rat
Experimental: Male Wistar rats with a body weight (BW) of 300-450 g were used as experimental animals. The rats are anesthetized immediately before the experiment with 50 mg/kg pentobarbital Na intraperitoneally (i.p.) or 70 mg/kg inactin i.v. PE tubes are tied into the carotid artery and femoral vein.
(§1) To maintain the blood pressure and to prevent formation of thrombi in the PE tubes of the blood vessels, each hour 2.5 ml of heparinized 0.9% strength NaCl solution are infused through the femoral vein and 1.2 ml through the carotid artery.
The arterial blood pressure is measured invasively using a PONEMAH hemodynamic analyzer (HSE, March, Germany). Via the tube in the carotid artery, the arterial blood pressure is mechanoelectrically converted in a Statham transducer (ISOTEC), amplified in a Plugsys (DBA module, type 660), digitized in an A/D converter and input into the PC memory over defined time intervals. The values in the memory are then treated with an adapted algorithm in order to establish the blood pressure parameters to be calculated for heart rate, systolic, diastolic and mean blood pressure.
(§2) The ergoline derivatives are administered i.v. through the femoral vein as 5 percent EtOH/NaCl (0.9%) solution, 1 ml/kg in a dosage of 0.5 mg/kg test substance.

[1] = test system: normotensive Wistar rats after pretreatment with Ecolid; assay: Blood pressure testing after blockade of autonomic nerve tracts with Ecolid; type: in vivo, rat; settings: Table 2; for Effect pressure/duration: duration: assessment class of duration; for Effect pressure/duration: duration / Effect pressure/duration: pressure: after Ecolid; for Effect pressure/duration: pressure: assessment class of pressure fall; for Heart rate: change shown as arrow; for Diastol. pressure / Mean pressure / Systol. pressure: effect (fall) on arterial blood pressure, Wistar rats pretreated with Ecolid 0.5 mg/kg i.v., test substance 0.5 mg/kg i.v.
Source text: Ecolid is a ganglionic blocker which competitively blocks the postsynaptic cholinergic (nicotinergic) receptors in the autonomic ganglia. This interrupts neurotransmission in the ganglia in both the para-sympathetic and sympathetic regions of the autonomic nervous system. The consequence thereof is, inter alia, a fall in blood pressure. It is possible in this way to differentiate central and peripheral (i.e. direct points of action on the smooth muscles) effects.
The experimental animals used were male Wistar rats with a BW of 300-450 g. The rats are anesthetized immediately before the experiment with 70 mg/kg inactin i.v. PE tubes are tied into the carotid artery and femoral vein.
as §1
Before testing the ergoline derivatives, the experimental animals were treated with Ecolid (dose: 0.5 mg/kg, i.v.).
as §2
The time stated in the table corresponds to the period between administration of Ecolid and injection of the test substances.

[2] = assessment class of duration, 0.5 mg/kg i.v., Table 1.1
[3] = assessment class of pressure fall, 0.5 mg/kg i.v., Table 1.1
[4] = change shown as arrow, Wistar rats, 0.5 mg/kg i.v., Table 1.1
[5] = duration of blood pressure effect, Wistar rats, 0.5 mg/kg i.v., Table 1.1
[6] = effect (fall) on arterial blood pressure, anesthetized Wistar rats, 0.5 mg/kg i.v., Table 1.1
[7] = assessment class of duration, 0.5 mg/kg i.v., Table 1.2
[8] = assessment class of pressure fall, 0.5 mg/kg i.v., Table 1.2
[9] = change shown as arrow, Wistar rats, 0.5 mg/kg i.v., Table 1.2
[10] = duration of blood pressure effect, 0.5 mg/kg i.v., Table 1.2
[11] = effect (fall) on arterial blood pressure, Wistar rats, 0.5 mg/kg i.v., Table 1.2
[12] = rats pretreated with Ecolid, 0.5 mg/kg i.v.

SMILES | Effect pressure/duration: duration (normotensive Wistar rats; [2]) | Effect pressure/duration: pressure (normotensive Wistar rats; [3]) | Heart rate (normotensive Wistar rats; [4]) | Duration (normotensive Wistar rats; [5]) | Diastol. pressure (normotensive Wistar rats; [6]) | Mean pressure (normotensive Wistar rats; [6]) | Systol. pressure (normotensive Wistar rats; [6]) | also measured
CN1CC(CNC(=O)C2CCC(C(=O)NCCCN3CCN(CCCN)CC3)CC2)CC2c3cccc4[nH]cc(c34)CC21.O=C(O)C(F)(F)F.O=C(O)C(F)(F)F.O=C(O)C(F)(F)F.O=C(O)C(F)(F)F (mixture of isomers) [Substance 9703133] |  |  |  |  |  |  |  | Diastol. pressure (normotensive Wistar rats; rat, in vivo, iv, 0.5 mg/kg): 50.0%; Duration (normotensive Wistar rats; rat, in vivo, iv, 0.5 mg/kg): ca 60 min; Effect pressure/duration: duration (normotensive Wistar rats; rat, in vivo, iv, 0.5 mg/kg): ↓↓↓/↓↓↓ (key: (↓): < 5 min; ↓: up to 10 min; ↓↓: up to 30 min; ↓↓↓: >30 min); Effect pressure/duration: pressure (normotensive Wistar rats; rat, in vivo, iv, 0.5 mg/kg): ↓↓↓/↓↓↓ (key: →: no effect to 5%; (↓): to 10%; ↓: to 20%; ↓↓: to 30%; ↓↓↓: >30%); Heart rate (normotensive Wistar rats; rat, in vivo, iv, 0.5 mg/kg): ↑; Mean pressure (normotensive Wistar rats; rat, in vivo, iv, 0.5 mg/kg): 45.4%; Systol. pressure (normotensive Wistar rats; rat, in vivo, iv, 0.5 mg/kg): 48.4%
CN1C[C@H](C(N)=O)CC2c3cccc4[nH]cc(c34)C[C@H]21 (some centres unmarked) [Dihydrolysergamide, reference compound] | (↓)/(↓) (< 5 min) | (↓)/(↓) (to 10%) | → | 5 min | 7.1% | 8.0% | 8.0% | 
CN1CC(CNC(=O)C(F)(F)C(F)(F)C(=O)NC2CCC(N)CC2)CC2c3cccc4[nH]cc(c34)CC21.O=C(O)C(F)(F)F.O=C(O)C(F)(F)F (centres unmarked) [Substance 9703157] |  |  |  |  |  |  |  | Effect pressure/duration: duration (normotensive Wistar rats; [7]): ↓↓ (up to 30 min); Effect pressure/duration: pressure (normotensive Wistar rats; [8]): ↓↓↓ (> 30%); Heart rate (normotensive Wistar rats; [9]): →; Duration (normotensive Wistar rats; [10]): 30 min; Diastol. pressure (normotensive Wistar rats; [11]): 49.6%; Mean pressure (normotensive Wistar rats; [11]): 48.8%; Systol. pressure (normotensive Wistar rats; [11]): 46.6%
CN1CC(CNC(=O)c2c(F)c(F)c(F)c(F)c2C(=O)NC2CCC(N)CC2)CC2c3cccc4[nH]cc(c34)CC21.O=C(O)C(F)(F)F.O=C(O)C(F)(F)F (centres unmarked) [Substance 9703156] |  |  |  |  |  |  |  | Effect pressure/duration: duration (normotensive Wistar rats; [7]): ↓↓ (up to 30 min); Effect pressure/duration: pressure (normotensive Wistar rats; [8]): ↓↓↓ (> 30%); Heart rate (normotensive Wistar rats; [9]): →; Duration (normotensive Wistar rats; [10]): 13 min; Diastol. pressure (normotensive Wistar rats; [11]): 43.4%; Mean pressure (normotensive Wistar rats; [11]): 38.6%; Systol. pressure (normotensive Wistar rats; [11]): 33.4%
Cc1nc(C)c(C(=O)NC2CCC(N)CC2)cc1C(=O)NCC1CC2c3cccc4[nH]cc(c34)CC2N(C)C1.O=C(O)C(F)(F)F.O=C(O)C(F)(F)F (centres unmarked) [Substance 9703137] | ↓↓↓/↓↓↓ (>30 min) | ↓↓↓/↓↓↓ (>30%) | → | ca 95 min | 64.8% | 60.2% | 56.5% | 
CN1CC(CNC(=O)CCCCC(=O)NCc2cccc(CN)c2)CC2c3cccc4[nH]cc(c34)CC21.O=C(O)C(F)(F)F.O=C(O)C(F)(F)F (centres unmarked) [Substance 9703123] |  |  |  |  |  |  |  | Diastol. pressure (normotensive Wistar rats; rat, in vivo, iv, 0.5 mg/kg): 44.3%; Duration (normotensive Wistar rats; rat, in vivo, iv, 0.5 mg/kg): 7 min; Effect pressure/duration: duration (normotensive Wistar rats; rat, in vivo, iv, 0.5 mg/kg): ↓↓↓/↓ (key: (↓): < 5 min; ↓: up to 10 min; ↓↓: up to 30 min; ↓↓↓: >30 min); Effect pressure/duration: pressure (normotensive Wistar rats; rat, in vivo, iv, 0.5 mg/kg): ↓↓↓/↓ (key: →: no effect to 5%; (↓): to 10%; ↓: to 20%; ↓↓: to 30%; ↓↓↓: >30%); Heart rate (normotensive Wistar rats; rat, in vivo, iv, 0.5 mg/kg): →; Mean pressure (normotensive Wistar rats; rat, in vivo, iv, 0.5 mg/kg): 43.4%; Systol. pressure (normotensive Wistar rats; rat, in vivo, iv, 0.5 mg/kg): 38.0%
CN1CC(CNC(=O)c2ccc(C(=O)NC3CCC(N)CC3)cc2)CC2c3cccc4[nH]cc(c34)CC21.O=C(O)C(F)(F)F.O=C(O)C(F)(F)F (centres unmarked) [Substance 9703112] | ↓↓/↓↓ (up to 30 min) | ↓↓/↓↓ (to 30%) | → | 18 min | 31.7% | 29.2% | 25.2% | 
CN1CC(CNC(=O)CCCCC(=O)NC2CCC(N)CC2)CC2c3cccc4[nH]cc(c34)CC21.O=C(O)C(F)(F)F.O=C(O)C(F)(F)F (centres unmarked) [Substance 9703114] |  |  |  |  |  |  |  | Diastol. pressure (normotensive Wistar rats; rat, in vivo, iv, 0.5 mg/kg): 20.7%; Duration (normotensive Wistar rats; rat, in vivo, iv, 0.5 mg/kg): 40 min; Effect pressure/duration: duration (normotensive Wistar rats; rat, in vivo, iv, 0.5 mg/kg): ↓↓/↓↓↓ (key: (↓): < 5 min; ↓: up to 10 min; ↓↓: up to 30 min; ↓↓↓: >30 min); Effect pressure/duration: pressure (normotensive Wistar rats; rat, in vivo, iv, 0.5 mg/kg): ↓↓/↓↓↓ (key: →: no effect to 5%; (↓): to 10%; ↓: to 20%; ↓↓: to 30%; ↓↓↓: >30%); Heart rate (normotensive Wistar rats; rat, in vivo, iv, 0.5 mg/kg): →; Mean pressure (normotensive Wistar rats; rat, in vivo, iv, 0.5 mg/kg): 20.3%; Systol. pressure (normotensive Wistar rats; rat, in vivo, iv, 0.5 mg/kg): 18.8%
CN1CC(CNC(=O)c2ccc(SSc3ccc(C(=O)NC4CCC(N)CC4)cn3)nc2)CC2c3cccc4[nH]cc(c34)CC21.O=C(O)C(F)(F)F.O=C(O)C(F)(F)F (centres unmarked) [Substance 9703155] |  |  |  |  |  |  |  | Effect pressure/duration: duration (normotensive Wistar rats; [7]): ↓↓↓ (> 30 min); Effect pressure/duration: pressure (normotensive Wistar rats; [8]): ↓↓ (to 30%); Heart rate (normotensive Wistar rats; [9]): →; Duration (normotensive Wistar rats; [10]): ca 60 min; Diastol. pressure (normotensive Wistar rats; [11]): 25.9%; Mean pressure (normotensive Wistar rats; [11]): 26.9%; Systol. pressure (normotensive Wistar rats; [11]): 24.7%
CC(C)[C@H]1C(=O)N2CCC[C@H]2[C@]2(O)O[C@](NC(=O)[C@@H]3C[C@@H]4c5cccc6[nH]cc(c56)C[C@H]4N(C)C3)(C(C)C)C(=O)N12 [Dihydroergocornine, reference compound] | (↓) (< 5 min) | ’ | → | 3 min | 4.3% | 3.3% | 5.0% | 
CN1C[C@H](CN)C[C@@H]2c3cccc4[nH]cc(c34)C[C@H]21 [8β-Aminomethyl-6-methylergoline, reference compound] | ↓↓ (up to 30 min) | ↓ (to 20%) | → | 30 min | 14.3% | 15.3% | 16.4% | 
CN1C[C@H](CN2CCC(=O)NC2=O)C[C@@H]2c3cccc4[nH]cc(c34)C[C@H]21 [Dihydro-1-[[6-methyl-ergolin-8b-yl]-methyl]2,4-(1H, 3H)-pyrimidinedione, reference compound] | ↓ (up to 10 min) | ↓↓↓ (>30%) | → | ca 10 min | 75.9% | 72.3% | 70.9% | Effect pressure/duration: duration ([1]; 0.5 mg/kg i.v.): →/→ (no effect to 5%); Effect pressure/duration: pressure ([1]; 0.5 mg/kg i.v.): →/→ (no effect to 5%); Heart rate [1, 12]: →; Diastol. pressure [1]: 0%; Mean pressure [1]: 0%; Systol. pressure [1]: 0%; Duration [1, 12]: 0 min
CN1CC(CNC(=O)c2ccc(C(=O)NCCCN3CCN(CCCN)CC3)cc2)CC2c3cccc4[nH]cc(c34)CC21.O=C(O)C(F)(F)F.O=C(O)C(F)(F)F.O=C(O)C(F)(F)F.O=C(O)C(F)(F)F (centres unmarked) [Substance 9703125] |  |  |  |  |  |  |  | Diastol. pressure (normotensive Wistar rats; rat, in vivo, iv, 0.5 mg/kg): 14.0%; Duration (normotensive Wistar rats; rat, in vivo, iv, 0.5 mg/kg): 90 min; Effect pressure/duration: duration (normotensive Wistar rats; rat, in vivo, iv, 0.5 mg/kg): ↓/↓↓↓ (key: (↓): < 5 min; ↓: up to 10 min; ↓↓: up to 30 min; ↓↓↓: >30 min); Effect pressure/duration: pressure (normotensive Wistar rats; rat, in vivo, iv, 0.5 mg/kg): ↓/↓↓↓ (key: →: no effect to 5%; (↓): to 10%; ↓: to 20%; ↓↓: to 30%; ↓↓↓: >30%); Heart rate (normotensive Wistar rats; rat, in vivo, iv, 0.5 mg/kg): →; Mean pressure (normotensive Wistar rats; rat, in vivo, iv, 0.5 mg/kg): 13.7%; Systol. pressure (normotensive Wistar rats; rat, in vivo, iv, 0.5 mg/kg): 13.1%
Nc1cc(N2CCCCC2)nc(N)[n+]1[O-] [Minoxidil, reference compound] | ↓/↓ (up to 10 min) | ↓/↓ (to 20%) | → | ca 10 min | 8.1% | 7.1% | 6.6% | 
CN1CC(CNC(=O)c2ccc(C(=O)NCC3CCCC(CN)C3)cc2)CC2c3cccc4[nH]cc(c34)CC21.O=C(O)C(F)(F)F.O=C(O)C(F)(F)F (mixture of isomers) [Substance 9703127] | ↓↓/↓↓ (up to 30 min) | ↓↓/↓↓ (to 30%) | → | >25 min | 29.0% | 27.2% | 24.8% | 
O=C(O)C(F)(F)F [TFA (equimolar), trifluoroacetic acid, reference compound] | (↓)/(↓) (< 5 min) | (↓)/(↓) (to 10%) | → | >1 min | 5.1% | 4.6% | 4.3% | 
C[N+](C)(C)CC[N+]1(C)Cc2c(Cl)c(Cl)c(Cl)c(Cl)c2C1.[Cl-].[Cl-] [Ecolid, reference compound] |  |  |  |  |  |  |  | Effect pressure/duration: duration ([1]; 0.5 mg/kg i.v.): ↓↓↓/↓↓↓ (> 30 min); Effect pressure/duration: pressure ([1]; 0.5 mg/kg i.v.): ↓↓↓/↓↓↓ (> 30%); Heart rate [1, 12]: →; Diastol. pressure [1]: 54.7%; Mean pressure [1]: 50.4%; Systol. pressure [1]: 52.6%
